Experimental data as given in US20250296914A1, “ANTIVIRAL COMPOUNDS AND COMPOSITIONS THEREFROM” (CONSEJO SUPERIOR DE INVESTIGACIONES CIENTÍFICAS, priority 2022, published 2025).

Tests used:
[1] = system: SARS-CoV-2 stock strain NL/2020; experiment: Protective effect against virus-induced cytopathic effect (crystal violet staining of Vero-E6 monolayer); assay type: cell-based; details: Vero-E6, SARS-CoV-2 MOI 0.001, 72 h; for minimal effective concentration / PC MIN (lowest protective concentration): 50 to 0.78 μM tested; for minimal effective concentration: read-out: PC MIN (lowest protective concentration); for EC50: lowest fully protecting concentration averaged with next lower dilution, read-out: ESTIMATED EC50
[2] = system: SARS-CoV-2 stock strain NL/2020; experiment: Intracellular viral antigen (N protein) accumulation by immunofluorescence, Vero-E6; assay type: cell-based; details: Severe acute respiratory syndrome coronavirus 2, Vero C1008; Vero-E6, MOI 0.005, viral antigen staining, 24 h
[3] = system: SARS-CoV-2 stock strain NL/2020; experiment: Intracellular viral antigen (N protein) accumulation by immunofluorescence, A549-ACE2; assay type: cell-based; details: Severe acute respiratory syndrome coronavirus 2; A549-ACE2, MOI 0.005, viral antigen staining, 48 h
[4] = system: SARS-CoV-2 stock strain NL/2020; experiment: Intracellular viral antigen (N protein) accumulation by immunofluorescence, Calu3; assay type: cell-based; details: Severe acute respiratory syndrome coronavirus 2; Calu-3, MOI 0.005, viral antigen staining, 48 h
in vitro [5] = details: African green monkey
in vitro [6] = details: human
in vitro [7] = details: human; remark: listed apart in the source
[8] = system: SARS-CoV-2 stock strain NL/2020; experiment: Intracellular viral RNA quantification by RT-qPCR in A549-ACE2 cells; assay type: cell-based; details: for LOG viral RNA reduction: A549-ACE2, MOI 0.005, 48 h, vs DMSO
[9] = Severe acute respiratory syndrome coronavirus 2, Vero C1008, 72 h

Compound	minimal effective concentration [1, 9]	EC50 [1, 9]	EC50 [2]	EC90 [2]	EC50 [3]	EC90 [3]	EC50 [4]	EC90 [4]	CC50 at 48 h (in vitro [5])	also measured
COC(=O)c1cc(-c2cc(OC(C)C)ccc2F)ccc1NC(C#N)[C@H](Cc1c[nH]c2ccccc12)NC(=O)OC(C)(C)C (stereo partly drawn) [(Ip), methyl 4-(((2S)-2-((tert-butoxycarbonyl)amino)-1-cyano-3-(1H-indol-3-yl)propyl)amino)-2′-fluoro-5′-isopropoxy-[1,1′-biphenyl]-3-carboxylate]	1.56 µM	1170 nM	1500 nM	7000 nM	5000 nM	9000 nM	1800 nM	8000 nM	> 50000 nM	–
COC(=O)c1cc(Br)ccc1NC(C#N)[C@H](Cc1c[nH]c2ccccc12)NC(=O)OC(C)(C)C (stereo partly drawn) [(Ib), methyl 5-bromo-2-(((2S)-2-((tert-butoxycarbonyl)amino)-1-cyano-3-(1H-indol-3-yl)propyl)amino)benzoate]	0.78 µM	580 nM	500 nM	2200 nM	1800 nM	2700 nM	1200 nM	2500 nM	> 12500 nM	–
COC(=O)c1cc(-c2cccc(N3CCOCC3)c2)ccc1NC(C#N)[C@H](Cc1c[nH]c2ccccc12)NC(=O)OC(C)(C)C (stereo partly drawn) [(Ig), methyl 4-(((2S)-2-((tert-butoxycarbonyl)amino)-1-cyano-3-(1H-indol-3-yl)propyl)amino)-3′-morpholino-[1,1′-biphenyl]-3-carboxylate]	0.78 µM	580 nM	1300 nM	2000 nM	1800 nM	8000 nM	1800 nM	8000 nM	> 50000 nM	CC50 at 48 h (in vitro [6]): > 50000 nM; CC50 at 48 h (in vitro [7]): > 50000 nM
CCC(CC)COC(=O)[C@H](C)N[P@](=O)(OC[C@H]1O[C@@](C#N)(c2ccc3c(N)ncnn23)[C@H](O)[C@@H]1O)Oc1ccccc1 [Remdesivir, remdesivir, reference compound]	–	–	–	–	–	–	–	–	–	LOG viral RNA reduction ([8]; compound concentration 5 μM): 6.67 LOG
COC(=O)c1cc(-c2ccc3c(c2)OCCO3)ccc1NC(C#N)[C@H](Cc1c[nH]c2ccccc12)NC(=O)OC(C)(C)C (stereo partly drawn) [(If), methyl 2-(((2S)-2-((tert-butoxycarbonyl)amino)-1-cyano-3-(1H-indol-3-yl)propyl)amino)-5-(2,3-dihydrobenzo[b][1,4]dioxin-6-yl)benzoate]	0.78 µM	580 nM	1000 nM	1800 nM	1000 nM	1800 nM	2000 nM	4000 nM	> 50000 nM	LOG viral RNA reduction ([8]; compound concentration 4 μM): 5.14 LOG; Prevention of SARS-CoV-2 propagation (in words) ([8]; A549-ACE2, conclusion from Table 5): effective in preventing propagation of SARS-CoV-2; CC50 at 48 h (in vitro [6]): > 50000 nM; CC50 at 48 h (in vitro [7]): 50000 nM
CC(C)(C)OC(=O)N[C@@H](Cc1c[nH]c2ccccc12)C(C#N)Nc1ccc(Cl)cc1C(=O)c1ccccc1 (stereo partly drawn) [(Id), (3S)-3-(tert-Butoxycarbonylamino)-4-(1H-indol-3-yl)-2-((2-benzoyl-4-chlorophenyl)amino)butanenitrile]	0.78 µM	580 nM	200 nM	500 nM	600 nM	1400 nM	300 nM	1100 nM	> 50000 nM	–
CCc1ccc(-c2ccc(NC(C#N)[C@H](Cc3c[nH]c4ccccc34)NC(=O)OC(C)(C)C)c(C(=O)OC)c2)cc1 (stereo partly drawn) [(Il), methyl 4-(((2S)-2-((tert-butoxycarbonyl)amino)-1-cyano-3-(1H-indol-3-yl)propyl)amino)-4′-ethyl-[1,1′-biphenyl]-3-carboxylate]	1.56 µM	1170 nM	–	–	–	–	–	–	–	–
CC(C)(C)OC(=O)N[C@@H](Cc1c[nH]c2ccccc12)C(C#N)Nc1ccccc1C(=O)OC(C)(C)C (stereo partly drawn) [(Iv), tert-Butyl 2-(((2S)-2-((tert-butoxycarbonyl)amino)-1-cyano-3-(1H-indol-3-yl)propyl)amino)-benzoate]	3.12 µM	2340 nM	–	–	–	–	–	–	–	–
COC(=O)c1cc(-c2ccc(N3CCOCC3)nc2)ccc1NC(C#N)[C@H](Cc1c[nH]c2ccccc12)NC(=O)OC(C)(C)C (stereo partly drawn) [(Is), methyl 2-(((2S)-2-((tert-butoxycarbonyl)amino)-1-cyano-3-(1H-indol-3-yl)propyl)amino)-5-(6-morpholinopyridin-3-yl)benzoate]	1.56 µM	1170 nM	400 nM	1800 nM	2000 nM	8000 nM	1300 nM	8000 nM	> 50000 nM	CC50 at 48 h (in vitro [6]): > 50000 nM; CC50 at 48 h (in vitro [7]): > 50000 nM
CCOC(=O)c1ccccc1NC(C#N)[C@H](Cc1c[nH]c2ccccc12)NC(=O)OC(C)(C)C (stereo partly drawn) [(Ih), ethyl 2-(((2S)-2-((tert-butoxycarbonyl)amino)-1-cyano-3-(1H-indol-3-yl)propyl)amino)-benzoate]	1.56 µM	1170 nM	100 nM	2500 nM	4000 nM	7000 nM	3700 nM	4000 nM	> 12500 nM	–
COC(=O)c1cc(-c2cccc(Cc3ccccc3)c2)ccc1NC(C#N)[C@H](Cc1c[nH]c2ccccc12)NC(=O)OC(C)(C)C (stereo partly drawn) [(Iah), methyl 3′-benzyl-4-(((2S)-2-((tert-butoxycarbonyl)amino)-1-cyano-3-(1H-indol-3-yl)propyl)-amino)-[1,1′-biphenyl]-3-carboxylate]	6.25 µM	4680 nM	–	–	–	–	–	–	–	–
COC(=O)c1cc(-c2ccnc(N3CCOCC3)c2)ccc1NC(C#N)[C@H](Cc1c[nH]c2ccccc12)NC(=O)OC(C)(C)C (stereo partly drawn) [(Ian), methyl 2-(((2S)-2-((tert-butoxycarbonyl)amino)-1-cyano-3-(1H-indol-3-yl)propyl)amino)-5-(2-morpholinopyridin-4-yl)benzoate]	1.85 µM	1390 nM	–	–	1100 nM	6000 nM	–	–	–	CC50 at 48 h (in vitro [6]): > 50000 nM
CC(C)(C)OC(=O)N[C@@H](Cc1c[nH]c2ccccc12)C(C#N)Nc1ccccc1C(=O)NCc1ccccc1 (stereo partly drawn) [(Iai), 2-(((2S)-2-(tert-butoxycarbonylamino)-1-cyano-3-(1H-indol-3-yl)propyl)amino)-N-benzyl-benzamide]	6.25 µM	4690 nM	–	–	–	–	–	–	–	–
COC(=O)c1cc(-c2ccc(C(C)(C)C)cc2)ccc1NC(C#N)[C@H](Cc1c[nH]c2ccccc12)NC(=O)OC(C)(C)C (stereo partly drawn) [(Ij), methyl 4-(((2S)-2-((tert-butoxycarbonyl)amino)-1-cyano-3-(1H-indol-3-yl)propyl)amino)-4′-(tert-butyl)-[1,1′-biphenyl]-3-carboxylate]	1.56 µM	1170 nM	–	–	–	–	–	–	–	–
CC(=O)c1ccccc1NC(C#N)[C@H](Cc1c[nH]c2ccccc12)NC(=O)OC(C)(C)C (stereo partly drawn) [(Ial), (3S)-3-(tert-butoxycarbonylamino)-2-((2-acetylphenyl)amino)-4-(1H-indol-3-yl)butanenitrile]	12.5 µM	9370 nM	–	–	–	–	–	–	–	–
COC(=O)c1ccccc1NC(C#N)[C@@H](Cc1c[nH]c2ccccc12)NC(=O)OC(C)(C)C (stereo partly drawn) [(Iak), methyl 2-(((2R)-2-((tert-butoxycarbonyl)amino)-1-cyano-3-(1H-indol-3-yl)propyl)amino)-benzoate]	12.5 µM	9370 nM	–	–	–	–	–	–	–	–
CCCCc1ccc(-c2ccc(NC(C#N)[C@H](Cc3c[nH]c4ccccc34)NC(=O)OC(C)(C)C)c(C(=O)OC)c2)cc1 (stereo partly drawn) [(Iag), methyl 4-(((2S)-2-((tert-butoxycarbonyl)amino)-1-cyano-3-(1H-indol-3-yl)propyl)amino)-4′-butyl-[1,1′-biphenyl]-3-carboxylate]	–	–	–	–	–	–	–	–	–	PC MIN (lowest protective concentration) [1]: 6.25 µM; EC50 [1]: 4680 nM
COC(=O)c1ccc(NC(C#N)[C@H](Cc2c[nH]c3ccccc23)NC(=O)OC(C)(C)C)cc1 (stereo partly drawn) [(Iam), methyl 4-(((2S)-2-((tert-butoxycarbonyl)amino)-1-cyano-3-(1H-indol-3-yl)propyl)amino)-benzoate]	25 µM	18800 nM	–	–	–	–	–	–	–	–
COC(=O)c1ccc(Br)cc1NC(C#N)[C@H](Cc1c[nH]c2ccccc12)NC(=O)OC(C)(C)C (stereo partly drawn) [(Ii), methyl 4-bromo-2-(((2S)-2-((tert-butoxycarbonyl)amino)-1-cyano-3-(1H-indol-3-yl)propyl)-amino)benzoate]	1.56 µM	1170 nM	200 nM	1400 nM	2000 nM	6000 nM	< 900 nM	2700 nM	> 12500 nM	–
COC(=O)c1cc(-c2ccc(C3CC3)cc2)ccc1NC(C#N)[C@H](Cc1c[nH]c2ccccc12)NC(=O)OC(C)(C)C (stereo partly drawn) [(Im4), methyl 4-(((2S)-2-((tert-butoxycarbonyl)amino)-1-cyano-3-(1H-indol-3-yl)propyl)amino)-4′-cyclopropyl-[1,1′-biphenyl]-3-carboxylate]	–	–	–	–	–	–	–	–	–	PC MIN (lowest protective concentration) [1]: 6.25 µM; EC50 [1]: 4690 nM
